The values that follow come from patent publication US20250339426A1, “GCN2 MODULATOR FOR TREATING CANCER” (HIBERCELL, INC., priority 2022, published 2025).

SMILES strings stand for the structures.

Assay [1] has as its system LoVo (human colorectal cancer cells). Nature of the assay: In vivo tumor growth inhibition, LoVo xenograft. The arrangement: species or system BALB/c nude mice. Particulars: both 1 and 3 mg/kg twice daily oral. On the procedure:
(§1) LoVo (human colorectal cancer cells): Female 6-8 weeks old BALB/c nude mice were inoculated subcutaneously on the right flank with LoVo tumor cells (5×10^6) in 0.1 ml of EMEM medium without serum for tumor development. The treatments were started when the mean tumor size reached approximately 243 mm^3 at Day 16 post inoculation and continued until end of study by twice daily oral gavage dosing of HC-7366 at listed doses (vehicle, 0.3 mg/kg HC-7366, 1 mg/kg HC-7366, 3 mg/kg HC-7366, 10 mg/kg HC-7366, or 30 mg/kg HC-7366, FIGS. 8-9).
(§2) [formula] • 2.2.2 Tumor Measurements: The measurement of tumor size was conducted three times weekly with a caliper and recorded. The tumor volume (mm^3) was estimated using the formula: TV=a×b^2/2, where “a” and “b” is long and short diameters of a tumor, respectively. Tumor volume was calculated using the formula [tumor volume (mm^3)=π/6×length×width^2).
(§3) Regression was calculated using the formula=100×ΔT/T initial, if ΔT<0. Animals with 0 mm^3 tumor volume (no measurable tumor) for three consecutive measurements were considered as complete responders and animals with 50% tumor regressions were partial responders.

In assay [2] the test system is CTG-3679. The assay is described as follows: Ex vivo AML PDX cell viability (Cell Titer Glo). Type of assay: cell-based. Particulars: Homo sapiens, 144 h; PDX model CTG-3679, 6 days; read-out: HC-7366 EC50. Here is the method: (§4) . Cell viability was assayed after treating PDX models with DMSO or HC-7366 for 6 days using a plate-based luminescence assay (Cell Titer Glo). […]
(§5) EC50 values were calculated to the bottom of the curve and are provided below. Viability curves are provided for the models CTG-2229 (FIG. 81), CTG-3680 (FIG. 82), CTG-3667 (FIG. 83), CTG-2456 (FIG. 84), CTG-2457 (FIG. 85), and CTG-2454 (FIG. 86).
(In general: ATP-based viability assays read luminescence as a measure of living cells.)

Assay [3] has as its system CTG-3438. Nature of the assay: Ex vivo AML PDX cell viability (Cell Titer Glo). In kind it is cell-based. The conditions noted are these: Homo sapiens, 144 h; PDX model CTG-3438, 6 days; read-out: HC-7366 EC50. On the procedure: as §4, §5
Assay [4] relates to CTG-2774. Nature of the assay: Ex vivo AML PDX cell viability (Cell Titer Glo). Type of assay: cell-based. The conditions noted are these: Homo sapiens, 144 h; PDX model CTG-2774, 6 days; read-out: HC-7366 EC50. On the procedure:
as §4, §5

The subject of assay [5] is CTG-2239. The assay is described as follows: Ex vivo AML PDX cell viability (Cell Titer Glo). Particulars: Homo sapiens, 144 h; PDX model CTG-2239, 6 days; read-out: HC-7366 EC50. In kind it is cell-based. Here is the method:
as §4, §5

Assay [6] concerns CTG-3441. The assay is described as follows: Ex vivo AML PDX cell viability (Cell Titer Glo). In kind it is cell-based. Particulars: Homo sapiens, 144 h; PDX model CTG-3441, 6 days; read-out: HC-7366 EC50. Here is the method: as §4, §5
Assay [7] concerns HT1080 (human fibrosarcoma cells). Nature of the assay: In vivo tumor growth inhibition, HT1080 xenograft. The conditions noted are these: both 1 and 3 mg/kg, oral gavage. The arrangement: species or system BALB/c nude mice. Here is the method:
HT1080 (human fibrosarcoma cells): Female 6-8 weeks old BALB/c nude mice were inoculated subcutaneously on the right flank with HT1080 tumor cells (1×10^7) in 0.1 ml of EMEM medium without serum for tumor development. The treatments were started when the mean tumor size reached approximately 109 mm^3 at Day 4 post inoculation and continued until end of study by oral gavage dosing of HC-7366 at listed doses (vehicle, 0.3 mg/kg HC-7366 BID (two times per day), 1 mg/kg HC-7366 BID, 3 mg/kg HC-7366 BID, 0.6 mg/kg HC-7366 QD (one time per day), 2 mg/kg HC-7366 QD, or 6 mg/kg HC-7366 QD, FIGS. 6-7).
as §2, §3

The test system of assay [8] is Ki67 positive cells in DLD-1 tumor sections. The assay is described as follows: IHC staining of Ki67 in DLD-1 tumor sections. In kind it is in vivo, mice. On the procedure: as §1, with “DLD-1” for “LoVo”, “RPMI1640” for “EMEM”, “195” for “243”, “7” for “16”, “FIG. 10). For the time course study, tumors were harvested at Days 4, 7 and 14. Tumors were then used for IHC and RNAseq experiments (see Example 21).” for “FIGS. 8-9).”
DLD-1 tumor bearing mice were treated with HC-7366 at 0.3, 1, 3, 10 and 30 mg/kg twice a day for 14 days. Tumors were harvested for RNAseq analysis at Day 4, Day 7 and Day 14 (FIG. 128).

For assay [9], the system named is HIF1α and HIF2a in FaDu tumors. The assay is described as follows: Tumor IHC, FaDu tumors. In kind it is in vivo, BALB/c nude mice. Particulars: end of study. Here is the method: Immunohistochemical analysis was carried out on tumors that were collected at the end of the study described in Example 6. Formalin-fixed paraffin-embedded samples were sectioned at 5 μm thickness and mounted on Superfrost Plus microscope slides (Fisher Scientific). All immunohistochemical (IHC) staining was performed on Bond Rx auto-stainer (Leica Biosystems) using the conventional TSA-amplified detection system. Primary antibodies used were as follows: a-ASNS (Cell Signaling Technology #92479), a-PUMA (Cell Signaling Technology #98672), a-PSAT1 (Proteintech #10501-1-AP), a-PHGDH (Proteintech #14719-1-AP), HIF-1a-Novus Biologicals NB 100-479, HIF-2a-Novus Biologicals NB100-122SS, and GLUT-1-EMB Biosciences 07-1401. […]
Slides were imaged with Aperio Versa 200 (Leica Biosystems) whole-slide scanner using 10×/0.32NA objective, and the data were analyzed using custom-written macros in ImageJ/FIJI (NIH). Briefly, 150 μm of outer edges of the tumor sections and necrotic regions (determined by lack of 4′,6-diamidino-2-phenylindole (DAPI) signal or presence of condensed DNA) were eliminated from the analysis. […] Scans of immune-staining were processed to remove background, then total intensity value above appropriate threshold levels was measured and normalized to tissue area. […]

What is called EC50 is the midpoint of the concentration-response curve.

As to `CNC(=O)c1ncn2cc(-c3c(F)ccc(NS(=O)(=O)c4cc(Cl)cnc4OC)c3F)ncc12` [HC-7366, 6-(3-((5-chloro-2-methoxypyridine)-3-sulfonamido)-2,6-difluorophenyl)-N-methylimidazo[1,5-a]pyrazine-1-carboxamide], the tumor growth inhibition in assay [1] is listed as 94%; in [7] it was “up to 80%”. The EC50 in [2] amounted to 107 µM; in [3], 196 µM; in assay [4], 96.9 µM; in [5], 1170 µM; in [6], 102 µM. Besides, the “Ki67 positive cancer cells” value in assay [8] (Day 4, 0.3, 10 or 30 mg/kg) is listed as “not at the less efficacious doses”; in [8] (Day 4, 1 and 3 mg/kg) it was “significantly reduced”. Further, the HIF1α protein levels result in assay [9] is given as “significantly reduced”. For the same compound, the HIF2a protein levels entry in [9] is “significantly reduced”.
